Assay results: patent publication US20250375539A1, “COMPOSITIONS OF DISPERSED SYSTEMS FOR BIOMEDICAL APPLICATIONS, PROCESS FOR THEIR PREPARATION AND USES THEREOF” (SUPERBRANCHE, priority 2022, published 2025)

Assay: Isothermal compression of Langmuir monolayers of dendrons at the air/water interface
Assay type: physicochemical
Conditions: 25±0.5° C.
Procedure: The evaluation of anchoring capability of the dendrons at interfacial film of microbubbles was evaluated by investigating the isothermal compression of Langmuir monolayers formed by these molecules at the air/water interface. Langmuir monolayers constitute a bidimensional experimental model of the interfacial film of the nanoemulsions. In the above-mentioned experiments, the surface pressure (π) versus molecular area (A) isotherms were recorded using a Langmuir minitrough (KSV NIMA, Finland) equipped with two movable barriers (initial area: 365×75 mm^2, compression speed: 10 cm^2 min^−1, which corresponded to a reduction of the total area of ˜3.6% min^−1). π was measured using the Wilhelmy plate (paper) method. The trough was maintained at 25±0.5° C. Solutions of oligo(ethylene oxide) dendrons (1 mmol L^−1) in chloroform were spread on the surface of water (320 mL). Subsequently, 15 min was allowed for chloroform to evaporate and the film to equilibrate before compression was initiated. All the experiments were performed at least three times. Since our Langmuir trough only allowed for a surface area compression of about 10, isotherms were recorded in three separate experiments.

CCOP(=O)(Cc1cc(CP(=O)(OCC)OCC)cc(OCCNC(=O)c2cc(OCCOCCOCCOCCOC)c(OCCOCCOCCOCCOC)c(OCCOCCOCCOCCOC)c2)c1)OCC [DM]
collapse pressure / surface pressure of the Langmuir monolayer: ~10 mN m^−1
